# Active and inactive are the calls of the source.
# How the values were obtained:
# [1] = Luminescence Cell-Based Dose Confirmation HTS to Identify Activators of 5'UTR Stem-Loop Driven Alpha-Synuclein mRNA Translation in H4 Neuroglioblastoma Cells. [Related pubchem assays: 1829 (Project Summary), 1814 (Primary HTS)]; assay type: functional
# H4 = experiment: Luminescence Cell-Based Dose Response HTS to Identify Activators of 5'UTR Stem-Loop Driven Prion Protein mRNA Translation in H4 Neuroglioblastoma Cells. [Related pubchem assays: 1829 (Project Summary), 1814 (Primary HTS)]; assay type: functional; settings: Homo sapiens
# [2] = target: T1, DNA repair and recombination protein RAD54-like (Homo sapiens, UniProt Q92698); experiment: inhibitors of human RAD54 branch migration, confirmation, biochemical, fluorescence, cherry-picked samples, dose series (AID 651657); assay type: functional
# T1 sequence (Q92698 whole entry): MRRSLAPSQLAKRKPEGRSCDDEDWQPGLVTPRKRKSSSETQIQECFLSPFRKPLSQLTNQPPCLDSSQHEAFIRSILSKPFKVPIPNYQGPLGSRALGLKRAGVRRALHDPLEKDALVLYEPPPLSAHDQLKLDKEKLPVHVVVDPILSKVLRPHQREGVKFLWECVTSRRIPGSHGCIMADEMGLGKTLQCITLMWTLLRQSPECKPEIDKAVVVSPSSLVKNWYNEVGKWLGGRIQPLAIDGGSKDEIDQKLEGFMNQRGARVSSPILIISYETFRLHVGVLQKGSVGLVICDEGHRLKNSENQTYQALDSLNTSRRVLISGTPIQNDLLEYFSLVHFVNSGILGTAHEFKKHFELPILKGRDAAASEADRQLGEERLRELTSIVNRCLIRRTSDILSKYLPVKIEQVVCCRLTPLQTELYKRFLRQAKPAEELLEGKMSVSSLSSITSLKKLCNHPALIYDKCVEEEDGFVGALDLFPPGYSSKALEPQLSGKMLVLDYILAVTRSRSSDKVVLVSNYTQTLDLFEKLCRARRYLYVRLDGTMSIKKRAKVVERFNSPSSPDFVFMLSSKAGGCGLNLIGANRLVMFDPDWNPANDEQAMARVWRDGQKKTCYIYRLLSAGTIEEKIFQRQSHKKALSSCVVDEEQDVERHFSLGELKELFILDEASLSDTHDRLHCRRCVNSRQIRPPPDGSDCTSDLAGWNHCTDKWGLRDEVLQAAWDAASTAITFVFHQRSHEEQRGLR
# [3] = Luminescence Cell-Based Dose Response HTS to Identify Activators of Luciferase Translation or Activity in H4 […] Cells. [Related pubchem assays: 1829 (Project Summary), 1814 (Primary HTS)]; assay type: functional
# [4] = target: SWI/SNF-related matrix-associated actin-dependent regulator of chromatin subfamily A member 2 (Homo sapiens, UniProt P51531); experiment: Luminescence-based cell-based high throughput dose response assay to identify activators of the function of SWI/SNF related, matrix associated, actin dependent regulator of chromatin, subfamily a, member 2 (SMARCA2, BRM).; assay type: functional
# SWI/SNF-related matrix-associated actin-dependent regulator of chromatin subfamily A member 2, sequence (P51531 whole entry): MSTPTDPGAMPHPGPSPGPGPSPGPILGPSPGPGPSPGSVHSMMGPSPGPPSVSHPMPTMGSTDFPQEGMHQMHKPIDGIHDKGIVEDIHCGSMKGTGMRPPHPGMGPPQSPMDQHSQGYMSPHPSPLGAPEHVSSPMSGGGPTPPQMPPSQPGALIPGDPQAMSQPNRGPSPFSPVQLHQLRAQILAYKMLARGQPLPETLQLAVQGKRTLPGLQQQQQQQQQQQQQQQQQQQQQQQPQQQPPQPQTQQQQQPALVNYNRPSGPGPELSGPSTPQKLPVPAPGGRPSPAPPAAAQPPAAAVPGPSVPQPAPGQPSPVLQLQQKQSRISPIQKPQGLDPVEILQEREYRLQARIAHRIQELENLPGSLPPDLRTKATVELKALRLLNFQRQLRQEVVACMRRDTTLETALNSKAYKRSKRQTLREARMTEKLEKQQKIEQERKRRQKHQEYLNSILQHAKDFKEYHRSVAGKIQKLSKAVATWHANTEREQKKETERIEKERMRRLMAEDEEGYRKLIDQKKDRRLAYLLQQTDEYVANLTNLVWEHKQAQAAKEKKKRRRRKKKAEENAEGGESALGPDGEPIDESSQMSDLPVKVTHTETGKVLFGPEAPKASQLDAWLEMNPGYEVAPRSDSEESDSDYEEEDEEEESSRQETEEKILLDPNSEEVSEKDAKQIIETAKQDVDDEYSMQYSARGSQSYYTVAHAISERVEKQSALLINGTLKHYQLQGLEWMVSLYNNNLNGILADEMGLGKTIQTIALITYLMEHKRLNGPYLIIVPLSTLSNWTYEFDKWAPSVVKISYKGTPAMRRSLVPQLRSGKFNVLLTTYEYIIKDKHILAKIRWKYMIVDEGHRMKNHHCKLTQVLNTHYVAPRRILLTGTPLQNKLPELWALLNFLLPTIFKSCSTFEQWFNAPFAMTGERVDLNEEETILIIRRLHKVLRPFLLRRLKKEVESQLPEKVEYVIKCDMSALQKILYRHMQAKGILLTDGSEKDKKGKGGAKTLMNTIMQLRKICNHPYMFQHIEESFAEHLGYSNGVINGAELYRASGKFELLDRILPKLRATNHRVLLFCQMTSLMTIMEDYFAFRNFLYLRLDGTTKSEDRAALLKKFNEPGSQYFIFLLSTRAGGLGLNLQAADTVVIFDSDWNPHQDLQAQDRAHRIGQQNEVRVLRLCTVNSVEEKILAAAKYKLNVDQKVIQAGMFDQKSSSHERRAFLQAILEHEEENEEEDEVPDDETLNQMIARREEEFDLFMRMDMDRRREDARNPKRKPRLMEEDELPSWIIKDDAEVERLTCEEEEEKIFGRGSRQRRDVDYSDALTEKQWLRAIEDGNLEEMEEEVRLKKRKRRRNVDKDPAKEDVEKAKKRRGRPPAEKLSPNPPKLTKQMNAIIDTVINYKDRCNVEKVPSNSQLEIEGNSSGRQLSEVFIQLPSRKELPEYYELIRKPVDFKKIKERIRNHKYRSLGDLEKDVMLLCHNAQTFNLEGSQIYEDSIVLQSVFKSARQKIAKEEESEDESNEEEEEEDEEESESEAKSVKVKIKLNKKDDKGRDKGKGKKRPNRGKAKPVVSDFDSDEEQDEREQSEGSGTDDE
# [5] = Counterscreen for activators of the function of SWI/SNF related, matrix associated, actin dependent regulator of chromatin, subfamily a, member 2 (SMARCA2, BRM): Luminescence-based cell-based high throughput dose response assay to identify non-selective compounds using the VP16 reporter assay.; assay type: functional
# [6] = target: T2, DNA repair protein RAD52 homolog (Homo sapiens, UniProt P43351); assay type: functional, biochemical
# T2 sequence (P43351 whole entry): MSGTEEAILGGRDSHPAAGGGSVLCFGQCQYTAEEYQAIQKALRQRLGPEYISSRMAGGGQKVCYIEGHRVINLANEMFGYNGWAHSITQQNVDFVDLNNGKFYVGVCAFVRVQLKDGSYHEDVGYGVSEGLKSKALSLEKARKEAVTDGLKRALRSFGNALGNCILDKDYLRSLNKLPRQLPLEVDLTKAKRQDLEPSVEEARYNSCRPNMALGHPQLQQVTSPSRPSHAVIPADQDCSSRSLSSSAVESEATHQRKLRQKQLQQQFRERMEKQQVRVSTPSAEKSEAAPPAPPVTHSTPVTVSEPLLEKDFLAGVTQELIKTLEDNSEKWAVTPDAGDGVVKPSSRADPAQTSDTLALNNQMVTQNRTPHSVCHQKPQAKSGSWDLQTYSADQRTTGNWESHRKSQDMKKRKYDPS
# [7] = DNA binding of candidate compounds, dose response, artefact control for RAD54 inhibitor project, biochemical, fluorescence polarization, cherry-pick (AID 651673); assay type: functional
# Kallikrein-7 = Kallikrein-7 (Homo sapiens, UniProt P49862); experiment: Fluorescence Intensity-based biochemical primary high throughput dose response assay to identify activators of kallikrein-7 (K7) zymogen.
# Kallikrein-7, sequence (P49862 whole entry): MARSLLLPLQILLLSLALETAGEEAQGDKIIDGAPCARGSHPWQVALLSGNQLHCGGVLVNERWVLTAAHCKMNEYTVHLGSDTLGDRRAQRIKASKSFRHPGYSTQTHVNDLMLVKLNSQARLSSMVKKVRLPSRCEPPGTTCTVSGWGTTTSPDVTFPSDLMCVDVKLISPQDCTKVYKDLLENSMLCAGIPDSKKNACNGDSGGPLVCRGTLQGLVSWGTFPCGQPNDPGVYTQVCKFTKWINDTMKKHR
# [8] = target: T3, Probable nicotinate-nucleotide adenylyltransferase (Staphylococcus aureus (strain N315), UniProt P65502); assay type: functional, Staphylococcus aureus subsp. aureus N315; settings: read-out: IC50_Mean;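 for IC50 Mean: confirmatory dose-response retesting of NadD inhibitor hits first found in an ultra-high-throughput screen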
# T3 sequence (P65502 whole entry): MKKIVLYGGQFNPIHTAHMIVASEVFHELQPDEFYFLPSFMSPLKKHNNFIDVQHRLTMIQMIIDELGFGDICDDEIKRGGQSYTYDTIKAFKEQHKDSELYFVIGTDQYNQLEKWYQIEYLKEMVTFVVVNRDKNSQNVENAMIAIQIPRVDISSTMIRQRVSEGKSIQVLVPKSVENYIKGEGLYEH
# [9] = target: T3, Probable nicotinate-nucleotide adenylyltransferase; assay type: functional, Staphylococcus aureus subsp. aureus N315
# Albumin = Albumin (Bos taurus, UniProt P02769); experiment: Counterscreen for inhibitors of T-cell receptor (TCR)-CD3 interaction: Fluorescence-based biochemical high throughput dose response assay to identify inhibitors of T-cell receptor (TCR)-CD3 interaction using a TAMRA-labeled BSA probe.; assay type: functional
# Albumin, sequence (P02769 whole entry): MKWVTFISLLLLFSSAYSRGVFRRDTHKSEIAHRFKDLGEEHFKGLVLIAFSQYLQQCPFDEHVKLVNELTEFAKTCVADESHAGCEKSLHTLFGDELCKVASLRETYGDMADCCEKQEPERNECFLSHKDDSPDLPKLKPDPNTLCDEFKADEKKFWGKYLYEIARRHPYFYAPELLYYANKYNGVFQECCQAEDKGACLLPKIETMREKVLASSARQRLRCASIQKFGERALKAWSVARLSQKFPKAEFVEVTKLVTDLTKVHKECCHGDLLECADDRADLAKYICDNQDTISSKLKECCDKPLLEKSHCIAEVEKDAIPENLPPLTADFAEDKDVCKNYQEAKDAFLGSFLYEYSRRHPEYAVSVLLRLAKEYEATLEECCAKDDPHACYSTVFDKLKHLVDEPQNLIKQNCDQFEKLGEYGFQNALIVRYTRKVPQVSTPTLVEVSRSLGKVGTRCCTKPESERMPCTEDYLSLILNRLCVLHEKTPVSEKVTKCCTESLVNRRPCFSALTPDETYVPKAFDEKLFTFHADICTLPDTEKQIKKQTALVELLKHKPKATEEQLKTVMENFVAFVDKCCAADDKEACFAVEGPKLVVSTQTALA
# [10] = target: DNA (cytosine-5)-methyltransferase 1 (Homo sapiens, UniProt P26358); experiment: DNMT1 methyltransferase inhibitors, confirmation, biochemical, fluorescent molecular beacon (AID 602386); assay type: functional
# [11] = A Cell Based Secondary Assay to Explore Cytotoxicity in HepG2 Cells of Compounds that Modulate Mycobacterium tuberculosis in Media Containing Glycerol versus Media without Glycerol (2).; assay type: functional
# [12] = target: Heat shock protein HSP 90-alpha (Homo sapiens, UniProt P07900); assay type: functional, organism-based
# [13] = microbe, parasite or virus in culture; assay type: functional; settings: Mycobacterium tuberculosis
# [14] = target: Hepatocyte nuclear factor 4-alpha (Homo sapiens, UniProt P41235); assay type: functional, cell-based;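 note: biochemical luminescence-based dose-response counterscreen measuring inhibition of HNF4 dimerization, run alongside a screen for blockers of ABHD5–perilipin-5 interaction; split luciferase complementation of HNF4 fusion proteins in cell lysate measuring dimerization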
# Hepatocyte nuclear factor 4-alpha, sequence (P41235 whole entry, the tested form may be a part): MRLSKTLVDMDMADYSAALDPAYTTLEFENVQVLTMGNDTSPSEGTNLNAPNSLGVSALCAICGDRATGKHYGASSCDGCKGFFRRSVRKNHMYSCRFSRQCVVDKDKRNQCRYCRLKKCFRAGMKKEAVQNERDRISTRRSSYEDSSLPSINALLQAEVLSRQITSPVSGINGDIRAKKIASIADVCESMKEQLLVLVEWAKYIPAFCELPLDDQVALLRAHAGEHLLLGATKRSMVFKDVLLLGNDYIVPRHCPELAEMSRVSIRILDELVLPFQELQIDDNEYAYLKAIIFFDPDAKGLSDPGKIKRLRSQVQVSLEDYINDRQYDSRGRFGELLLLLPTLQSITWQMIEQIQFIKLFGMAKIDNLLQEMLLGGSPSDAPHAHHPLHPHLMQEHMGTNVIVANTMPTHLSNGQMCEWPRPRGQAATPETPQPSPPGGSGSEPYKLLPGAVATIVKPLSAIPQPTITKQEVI
# [15] = Vero cell cytotoxicity, cytotoxicity control for M. tuberculosis inhibitor project, purified and synthesized samples, set 3 (AID 504684); assay type: functional
# [16] = A Cell Based Secondary Assay to Explore Cytotoxicity in THP-1 Cells of Compounds that Modulate Mycobacterium tuberculosis in Media Containing Glycerol versus Media without Glycerol (2).; assay type: functional
# [17] = target: Neurotensin receptor type 1 (Homo sapiens, UniProt P30989); assay type: functional;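 note: Image-based confirmatory dose-response assay measuring agonist activity at NTR1; NTR1-expressing U2OS osteosarcoma cells imaged for beta-arrestin GFP spot formation; agonist potency where compounds increase beta-arrestin recruitment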
# Neurotensin receptor type 1, sequence (P30989 whole entry): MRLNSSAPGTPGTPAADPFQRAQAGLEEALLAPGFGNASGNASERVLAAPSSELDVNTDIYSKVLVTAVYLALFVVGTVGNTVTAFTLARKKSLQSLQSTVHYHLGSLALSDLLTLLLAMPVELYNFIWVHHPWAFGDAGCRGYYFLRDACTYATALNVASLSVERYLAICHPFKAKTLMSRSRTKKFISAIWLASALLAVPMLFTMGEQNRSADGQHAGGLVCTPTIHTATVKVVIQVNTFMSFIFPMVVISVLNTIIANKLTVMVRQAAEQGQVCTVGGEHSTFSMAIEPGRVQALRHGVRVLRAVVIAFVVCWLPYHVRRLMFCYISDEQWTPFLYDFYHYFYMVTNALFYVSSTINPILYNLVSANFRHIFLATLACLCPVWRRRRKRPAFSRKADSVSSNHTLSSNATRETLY
# Beta-galactosidase = Beta-galactosidase (Escherichia coli, UniProt Q8VNN2); experiment: beta-galactosidase enzyme inhibitors and activators, dose response, artefact control for CCR6 antagonist project, biochemical, E. coli enzyme, set 3 (AID 504712); assay type: functional
# Beta-galactosidase, sequence (Q8VNN2 whole entry): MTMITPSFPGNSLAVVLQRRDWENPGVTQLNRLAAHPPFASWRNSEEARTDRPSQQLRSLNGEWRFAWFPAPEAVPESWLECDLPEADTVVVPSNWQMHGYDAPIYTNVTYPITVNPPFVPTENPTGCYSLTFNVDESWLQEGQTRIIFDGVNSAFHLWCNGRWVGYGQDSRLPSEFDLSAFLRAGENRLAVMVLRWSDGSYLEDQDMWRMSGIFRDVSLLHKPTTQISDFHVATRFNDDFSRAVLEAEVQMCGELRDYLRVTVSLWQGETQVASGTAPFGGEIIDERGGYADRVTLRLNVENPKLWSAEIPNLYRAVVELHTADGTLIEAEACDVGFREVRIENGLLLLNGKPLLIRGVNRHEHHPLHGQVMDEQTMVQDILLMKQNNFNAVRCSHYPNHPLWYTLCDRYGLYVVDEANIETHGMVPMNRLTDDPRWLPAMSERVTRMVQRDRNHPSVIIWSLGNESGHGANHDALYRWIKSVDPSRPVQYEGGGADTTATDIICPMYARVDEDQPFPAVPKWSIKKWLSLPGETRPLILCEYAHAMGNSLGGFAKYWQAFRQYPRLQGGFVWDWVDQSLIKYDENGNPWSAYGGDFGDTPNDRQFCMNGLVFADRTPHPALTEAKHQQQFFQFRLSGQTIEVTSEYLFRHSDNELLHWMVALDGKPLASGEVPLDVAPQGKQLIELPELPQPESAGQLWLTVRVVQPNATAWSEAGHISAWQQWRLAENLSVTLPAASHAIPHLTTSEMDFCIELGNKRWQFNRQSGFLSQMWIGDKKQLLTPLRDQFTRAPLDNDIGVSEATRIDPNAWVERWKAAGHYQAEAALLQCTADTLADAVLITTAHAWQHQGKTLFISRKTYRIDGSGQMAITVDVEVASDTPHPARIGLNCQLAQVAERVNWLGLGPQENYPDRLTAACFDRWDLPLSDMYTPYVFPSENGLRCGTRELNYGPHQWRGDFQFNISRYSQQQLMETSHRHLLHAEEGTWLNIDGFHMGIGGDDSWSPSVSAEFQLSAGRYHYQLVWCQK
# [18] = Shn3 3'UTR reporter inhibitors, dose response, cell-based, Clone20 osteoblasts, firefly luciferase, cherry-picked (AID 624132); assay type: functional;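 note: firefly luciferase luminescence from reporter carrying the Shn3 3'UTR in osteoblasts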
# [19] = control 3'UTR Renilla luciferase suppression, dose response, counter-screen for Shn3 inhibitor project, cell-based, Clone20-Shn3RL, cherry-picked (AID 624133); assay type: functional
# [20] = HepG2 cell cytotoxicity, dose response, cytotoxicity control for Shn3 inhibitor project, CellTiter-Glo, cherry-picked (AID 624134); assay type: functional, cell-based
# Beta Lactamase = Beta Lactamase (Pseudomonas aeruginosa, UniProt Q932Y6); experiment: beta-lactamase reporter inhibitor potency, dose response, artefact control for NOD2-RIPK2 interaction inhibitor project, BLA reporter cells, FRET fluorescence (AID 651552); assay type: functional, cell-based
# Beta Lactamase, sequence (Q932Y6 whole entry): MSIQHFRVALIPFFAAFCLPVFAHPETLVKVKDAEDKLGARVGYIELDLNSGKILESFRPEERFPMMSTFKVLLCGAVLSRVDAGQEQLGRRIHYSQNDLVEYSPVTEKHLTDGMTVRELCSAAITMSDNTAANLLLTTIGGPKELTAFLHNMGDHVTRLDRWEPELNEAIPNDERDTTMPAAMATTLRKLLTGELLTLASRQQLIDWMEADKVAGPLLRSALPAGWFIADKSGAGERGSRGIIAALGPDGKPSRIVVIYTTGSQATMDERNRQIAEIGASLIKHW
# HEK293 [21] = experiment: cells; settings: Homo sapiens
# HEK293 [22] = experiment: cells; settings: Homo sapiens; remark: listed apart in the source
# [23] = non-specific cell cytotoxicity, dose response, cytotoxicity control for PAX8 inhibitor project, plate reader, dry powder samples (AID 743021); assay type: functional, cell-based
# [24] = Fluorescence-based cell-based high throughput dose response assay for inhibitors of the interaction of nucleotide-binding oligomerization domain containing 2 (NOD2) and the receptor-interacting serine-threonine kinase 2 (RIPK2).; assay type: functional; settings: Homo sapiens
# Paired box protein Pax-8 = Paired box protein Pax-8 (Homo sapiens, UniProt Q06710); experiment: inhibitors of PAX8-driven TPO luciferase reporter, dose response, RMG-I cells, cherry-pick (AID 687027); assay type: functional, cell-based;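 note: luciferase reporter driven by Pax8 target thyroperoxidase promoter measured by SteadyGlo luminescence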
smiles,measurement,setting,value
CCN(CC)CCn1c2ccccc2c2nc3ccccc3nc21,EC50,[1],31.8 µM (active)
same,EC50,H4,29.6 µM (active)
same,AC50,[2],7.12 µM (active)
same,EC50,[3],15.1 µM (active)
same,EC50,[4],10.1 µM (inactive)
same,EC50,[5],> 91.1 µM (inactive)
same,AC50,[6],3.27 µM (active)
same,AC50,[7],64 µM (active)
COC(=O)C1CCN(C(=O)c2cc(-c3ccco3)nc3ccccc23)CC1,EC50,Kallikrein-7,> 69.5 µM (inactive)
same,IC50,[8],44.6 µM (active)
same,IC50,[9],18.8 µM (active)
same,IC50,Albumin,> 94.1 µM (inactive)
same,IC50,[10],7.31 µM (active)
COC(=O)c1cc(=O)n(-c2ccc(F)cc2)/c(=N/c2ccc(F)cc2)s1,CC50,[11],24.1 µM (active)
same,AC50,[12],8.18 µM (active)
same,CC50,[13],13.9 µM (active)
same,IC50,[14],4.1 µM (active)
same,CC50,[15],12.9 µM (active)
same,CC50,[16],21.5 µM (active)
same,EC50,[17],11.1 µM (active)
C=C1CC(Cn2cc(Br)c(=O)[nH]c2=O)(c2ccc(-c3ccccc3)cc2)OC1=O (stereo not given),IC50,Beta-galactosidase,> 66.6 µM (inactive)
same,AC50,[18],2.67 µM (active)
same,AC50,[19],4.16 µM (active)
same,AC50,[20],13.6 µM (active)
same,IC50,Beta Lactamase,12.2 µM (inactive)
same,EC50,HEK293 [21],> 59.7 µM (inactive)
same,EC50,HEK293 [22],> 59.7 µM (inactive)
same,AC50,[23],55.6 µM (active)
same,IC50,[24],2.2 µM (active)
same,AC50,Paired box protein Pax-8,6.49 µM (active)
